Earlier results on four compounds are cited in publication PMC11419783 (Blood, 2024).

Data set [1] relates to KMT2A-r cell lines engineered to express mutant menin (M327I or T349M). The note with it: M327I or T349M in endogenous MEN1-coding sequence.
Data set [2] concerns KMT2A and NPM1 altered R/R acute leukemia. To be noted: recommended phase 2 dose, NPM1-altered disease.
Data set [3] relates to Recombinant mutant MEN1 (MEN1^M327I, MEN1^T349M).

Regarding `COc1cc(-c2ccc(CN[C@H]3C[C@@H](O)[C@@H](N(C)c4ncnc5sc(CC(F)(F)F)cc45)C3)cc2)nnc1OC` [DS-1594], the “sensitivity of menin-mutant cell lines to antiproliferative effects” value (“sensitivity of menin-mutant cell lines” below) in data set [1] is on record as “resistant”. Turning to `CNc1nc(NC2CCN(Cc3ccc4c(cc(C#N)n4C[C@H](C)N4CCN(S(C)(=O)=O)CC4)c3C)CC2)c2cc(CC(F)(F)F)sc2n1` [ziftomenib], the “complete remission/complete remission with partial recovery of peripheral blood counts” value in data set [2] is 35%. As to `CCN(C(=O)c1cc(F)ccc1Oc1cncnc1N1CC2(CCN(C[C@H]3CC[C@H](NS(=O)(=O)CC)CC3)CC2)C1)C(C)C` [revumenib], in data set [3], the “binding affinity to mutant MEN1” value is on record as “significant reduction in binding affinity”. Further, the “sensitivity of menin-mutant cell lines” value in data set [1] is listed as “resistant”. `CNc1nc(NC2CCN(Cc3ccc4c(cc(C#N)n4CC45CC(NC=O)(C4)C5)c3C)CC2)c2cc(CC(F)(F)F)sc2n1` [MI3454]: the “sensitivity of menin-mutant cell lines” value in data set [1] is “resistant”.
